pIC50: −log10 of the molar value.

In experiment [1] the test system is T47D (PI3Kα-H1047R) cell line. Description: HTRF phospho-AKT(S473) cell assay in T47D cells. The format is cell-based, human. Particulars: Homo sapiens, 2 hours compound incubation. Put shortly:
(§1)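 HTRF read-out of phospho-AKT(S473) in lysates gave IC50 values after 2 h compound exposure at 37° C. Dose series was 12 points at 1:3, topping at 5 μM for T47D and 10 μM for SKBR3. Only SKBR3 received 70 ng/ml PDGF-BB during the last 15 minutes.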

Experiment [2] concerns SKBR3 (PI3Kα-Wild Type) cell line. Description: HTRF phospho-AKT(S473) cell assay in SKBR3 cells. The format is cell-based, human. To be noted: Homo sapiens, SK-BR-3, 2 hours compound incubation, PDGF-BB stimulated. Put shortly: as §1
Where [3] appears, read: T47D (PI3Kα-H1047R) cells, HTRF phospho-AKT(S473).
The mark [4] stands for this setting: SKBR3 (PI3Kα-Wild Type) cells, HTRF phospho-AKT(S473).
Setting [5] is: HTRF phospho-AKT(S473), T47D (PI3Kα-H1047R) cells.
[6] abbreviates: HTRF phospho-AKT(S473), SKBR3 (PI3Kα-Wild Type) cells.

With `Cc1cc([C@@H](C)Nc2ccc(Cl)nc2C(=O)NS(C)(=O)=O)c2nc(N3CCC(c4ccc(C)nc4)CC3)n(C)c(=O)c2c1` [Compound 271, (R)-6-chloro-3-((1-(3,6-dimethyl-2-(4-(6-methylpyridin-3-yl)piperidin-1-yl)-4-oxo-3,4-dihydroquinazolin-8-yl)ethyl)amino)-N-(methylsulfonyl) picolinamide], the pIC50 in experiment [1] (setting [3]) is more than 6.60; in experiment [2] (setting [4]) it was 5.30 to 6.00.
Take `Cc1cc([C@@H](C)Nc2ccc(Cl)nc2C(=O)NS(C)(=O)=O)c2nc(N3C[C@@H]4[C@H](C3)[C@H]4c3c(F)cnn3C3CC3)n(C)c(=O)c2c1` [Compound 570, 6-chloro-3-(((R)-1-(2-((1R,5S,6R)-6-(1-cyclopropyl-4-fluoro-1H-pyrazol-5-yl)-3-azabicyclo[3.1.0]hexan-3-yl)-3,6-dimethyl-4-oxo-3,4-dihydroquinazolin-8-yl)ethyl)amino)-N-(methylsulfonyl) picolinamide]: the pIC50 in experiment [1] (setting [5]) is more than 6.60; in experiment [2] (setting [6]), not above 5.30.
Turning to `Cc1cc([C@@H](C)Nc2ccc(Cl)nc2C(=O)NS(C)(=O)=O)c2nc(N3C[C@@H]4[C@H](C3)[C@H]4c3cnn(C)c3)n(C)c(=O)c2c1` [Compound 336, 6-chloro-3-(((R)-1-(3,6-dimethyl-2-((1R,5S,6S)-6-(1-methyl-1H-pyrazol-4-yl)-3-azabicyclo[3.1.0]hexan-3-yl)-4-oxo-3,4-dihydroquinazolin-8-yl)ethyl)amino)-N-(methylsulfonyl) picolinamide], the results for the pIC50 in experiment [1] (setting [3]) and in experiment [2] (setting [4]) were more than 6.60 and 5.30 to 6.00, respectively.
Take `Cc1ccc(C2CCN(c3nc4c([C@@H](C)Nc5ccc(Cl)nc5C(=O)NS(C)(=O)=O)cc(F)cc4c(=O)n3C)CC2)cn1` [Compound 365, (R)-6-chloro-3-((1-(6-fluoro-3-methyl-2-(4-(6-methylpyridin-3-yl)piperidin-1-yl)-4-oxo-3,4-dihydroquinazolin-8-yl)ethyl)amino)-N-(methylsulfonyl) picolinamide]: the pIC50 was more than 6.60 in experiment [1] (setting [3]) and 5.30 to 6.00 in experiment [2] (setting [4]).
For `Cc1cc([C@@H](C)Nc2ccc(Cl)nc2C(=O)NS(C)(=O)=O)c2nc(N3CC[C@@H](Oc4cnn(CC(F)(F)F)c4)C3)n(C)c(=O)c2c1` [Compound 329, 6-chloro-3-(((R)-1-(3,6-dimethyl-4-oxo-2-((R)-3-((1-(2,2,2-trifluoroethyl)-1H-pyrazol-4-yl)oxy)pyrrolidin-1-yl)-3,4-dihydroquinazolin-8-yl)ethyl)amino)-N-(methylsulfonyl) picolinamide], in that order: more than 6.60 and 5.30 to 6.00.
Take `Cc1cc([C@@H](C)Nc2ccc(Cl)nc2C(=O)NS(C)(=O)=O)c2nc(C3CCN(c4ccccc4)CC3)n(C)c(=O)c2c1` [Compound 831, (R)-6-chloro-3-((1-(3,6-dimethyl-4-oxo-2-(1-phenylpiperidin-4-yl)-3,4-dihydroquinazolin-8-yl)ethyl)amino)-N-(methylsulfonyl) picolinamide]: the pIC50 in experiment [1] (setting [5]) was 6.30 to 6.60; in experiment [2] (setting [6]), 5.30 to 6.00.
Regarding `C[C@@H](Nc1ccc(Cl)nc1C(=O)NS(C)(=O)=O)c1cc(F)cc2c(=O)n(C)c(N3C[C@@H]4[C@H](C3)[C@H]4c3ccn(C)n3)nc12` [Compound 373, 6-chloro-3-(((R)-1-(6-fluoro-3-methyl-2-((1R,5S,6R)-6-(1-methyl-1H-pyrazol-3-yl)-3-azabicyclo[3.1.0]hexan-3-yl)-4-oxo-3,4-dihydroquinazolin-8-yl)ethyl)amino)-N-(methylsulfonyl) picolinamide], the pIC50 was 6.30 to 6.60 in experiment [1] (setting [3]) and 5.30 to 6.00 in experiment [2] (setting [4]).
With `Cc1cc([C@@H](C)Nc2ccc(Cl)nc2C(=O)NS(C)(=O)=O)c2nc(N3C[C@@H]4[C@H](C3)[C@H]4c3csc(C)n3)n(C)c(=O)c2c1` [Compound 476, 6-chloro-3-(((R)-1-(3,6-dimethyl-2-((1R,5S,6R)-6-(2-methylthiazol-4-yl)-3-azabicyclo[3.1.0]hexan-3-yl)-4-oxo-3,4-dihydroquinazolin-8-yl)ethyl)amino)-N-(methylsulfonyl) picolinamide], the pIC50 in experiment [1] (setting [5]) is 6.30 to 6.60; in experiment [2] (setting [6]), 5.30 to 6.00.
Turning to `Cc1cc([C@@H](C)Nc2ccc(Cl)nc2C(=O)NS(C)(=O)=O)c2nc(N3CCC(c4ccnc(C)n4)CC3)n(C)c(=O)c2c1` [Compound 260, (R)-6-chloro-3-((1-(3,6-dimethyl-2-(4-(2-methylpyrimidin-4-yl)piperidin-1-yl)-4-oxo-3,4-dihydroquinazolin-8-yl)ethyl)amino)-N-(methylsulfonyl) picolinamide], the pIC50 in experiment [1] (setting [3]) was more than 6.60; in experiment [2] (setting [4]), 5.30 to 6.00.
The corresponding values for `COc1ccnn1C1CCN(c2nc3c([C@@H](C)Nc4ccc(Cl)nc4C(=O)NS(C)(=O)=O)cc(C)cc3c(=O)n2C)CC1` [Compound 318, (R)-6-chloro-3-((1-(2-(4-(5-methoxy-1H-pyrazol-1-yl)piperidin-1-yl)-3,6-dimethyl-4-oxo-3,4-dihydroquinazolin-8-yl)ethyl)amino)-N-(methylsulfonyl) picolinamide] are more than 6.60 and 5.30 to 6.00.
With `Cc1cc([C@@H](C)Nc2ccc(Cl)nc2C(=O)NS(C)(=O)=O)c2nc(N3CCC[C@H](c4ccncc4)C3)n(C)c(=O)c2c1` (relative stereo) [Compound 205, 6-chloro-3-(((R)-1-(3,6-dimethyl-4-oxo-2-((R*)-3-(pyridin-4-yl)piperidin-1-yl)-3,4-dihydroquinazolin-8-yl)ethyl)amino)-N-(methylsulfonyl) picolinamide], the values for the pIC50 in experiment [1] (setting [3]) and in experiment [2] (setting [4]) were more than 6.60 and 5.30 to 6.00, respectively.
With `Cc1cc([C@@H](C)Nc2ccc(Cl)nc2C(=O)NS(C)(=O)=O)c2nc(N3Cc4ccc(-c5ccnc(C)c5)cc4C3)n(C)c(=O)c2c1` [Compound 709, (R)-6-chloro-3-((1-(3,6-dimethyl-2-(5-(2-methylpyridin-4-yl)isoindolin-2-yl)-4-oxo-3,4-dihydroquinazolin-8-yl)ethyl)amino)-N-(methylsulfonyl) picolinamide], the pIC50 in experiment [1] (setting [5]) is 6.30 to 6.60; in experiment [2] (setting [6]), not above 5.30.
For `Cc1cc([C@@H](C)Nc2ccc(Cl)nc2C(=O)NS(C)(=O)=O)c2nc(-c3ccc(-c4cnc(C)nc4)nc3)n(C)c(=O)c2c1` [Compound 854, (R)-6-chloro-3-((1-(3,6-dimethyl-2-(6-(2-methylpyrimidin-5-yl)pyridin-3-yl)-4-oxo-3,4-dihydroquinazolin-8-yl)ethyl)amino)-N-(methylsulfonyl) picolinamide], the pIC50 was more than 6.60 in experiment [1] (T47D (PI3Kα-H1047R) cell line, phospho-AKT(S473) HTRF) and 5.30 to 6.00 in experiment [2] (SKBR3 (PI3Kα-Wild Type) cell line, phospho-AKT(S473) HTRF).
With `Cc1cc([C@@H](C)Nc2ccc(Cl)nc2C(=O)NS(C)(=O)=O)c2nc(N3C[C@@H]4[C@H](C3)[C@H]4c3nn(C)c(C)c3F)n(C)c(=O)c2c1` [Compound 462, 6-chloro-3-(((R)-1-(2-((1R,5S,6R)-6-(4-fluoro-1,5-dimethyl-1H-pyrazol-3-yl)-3-azabicyclo[3.1.0]hexan-3-yl)-3,6-dimethyl-4-oxo-3,4-dihydroquinazolin-8-yl)ethyl)amino)-N-(methylsulfonyl) picolinamide], the pIC50 in experiment [1] (setting [5]) is more than 6.60; in experiment [2] (setting [6]), not above 5.30.
With `Cc1cc([C@@H](C)Nc2ccc(Cl)nc2C(=O)NS(C)(=O)=O)c2nc(N3CCC(c4cnc(C)c(F)c4)CC3)n(C)c(=O)c2c1` [Compound 422, (R)-6-chloro-3-((1-(2-(4-(5-fluoro-6-methylpyridin-3-yl)piperidin-1-yl)-3,6-dimethyl-4-oxo-3,4-dihydroquinazolin-8-yl)ethyl)amino)-N-(methylsulfonyl) picolinamide], the pIC50 in experiment [1] (setting [3]) was more than 6.60; in experiment [2] (setting [4]) it was 5.30 to 6.00.
For `Cc1cc([C@@H](C)Nc2ccc(Cl)nc2C(=O)NS(C)(=O)=O)c2nc(-c3cnc(-c4ccn(C)n4)c(Cl)c3)n(C)c(=O)c2c1` [Compound 293, (R)-6-chloro-3-((1-(2-(5-chloro-6-(1-methyl-1H-pyrazol-3-yl)pyridin-3-yl)-3,6-dimethyl-4-oxo-3,4-dihydroquinazolin-8-yl)ethyl)amino)-N-(methylsulfonyl) picolinamide], in that order: 6.30 to 6.60 and 5.30 to 6.00.
For `Cc1cc([C@@H](C)Nc2ccc(Cl)nc2C(=O)NS(C)(=O)=O)c2nc(-c3cnc(-c4cnn(C)c4)c(Cl)c3)n(C)c(=O)c2c1` [Compound 292, (R)-6-chloro-3-((1-(2-(5-chloro-6-(1-methyl-1H-pyrazol-4-yl)pyridin-3-yl)-3,6-dimethyl-4-oxo-3,4-dihydroquinazolin-8-yl)ethyl)amino)-N-(methylsulfonyl) picolinamide], in that order: more than 6.60 and 5.30 to 6.00.
In the case of `Cc1cc([C@@H](C)Nc2ccc(Cl)nc2C(=O)NS(C)(=O)=O)c2nc(N3CC[C@@H](Oc4ncc(F)cn4)C3)n(C)c(=O)c2c1` [Compound 538, 6-chloro-3-(((R)-1-(2-((R)-3-((5-fluoropyrimidin-2-yl)oxy)pyrrolidin-1-yl)-3,6-dimethyl-4-oxo-3,4-dihydroquinazolin-8-yl)ethyl)amino)-N-(methylsulfonyl) picolinamide], the pIC50 in experiment [1] (setting [5]) was more than 6.60; in experiment [2] (setting [6]) it was 5.30 to 6.00.

Values taken from patent US12281122B1, “PI3K inhibitors” (Cogent Biosciences, Inc., priority 2023, dated 2025).
